US10857167B2, “Use of oligosaccharide compositions to enhance weight gain” (Children's Hospital Medical Center, priority 2015, dated 2020)

Tested on: distal small bowel gene expression
Assay: RNA sequencing / transcriptional analysis of small bowel 56 days after ICR (2′-FL signature response)
Type: in vivo, mouse
Source text: Luminal small bowel contents were expressed into AllProtect Tissue Reagent (Qiagen Inc, CA). Bacterial DNA was extracted using the AllPrep DNA/RNA Mini Kit (Qiagen Inc, CA), according to kit instructions and prior to sequencing (described below). Small bowel tissue samples for RNA were placed into RNA Later (Life Technologies, NY). RNA extraction was accomplished following Qiagen RNeasy Plus Kit instruction (Qiagen Inc, CA). All nucleic acid samples were then stored at -80 Celsius until sequenced (described below). Transcriptional analysis was carried out on resected and harvested small bowel samples obtained from operated mice taken to 8 weeks. Murine RNA sequencing libraries were prepared from approximately 1.5 μg RNA using the TruSeq RNA Sample Preparation Kit (Illumina, Calif.) and sequenced using the HiSeq 2000 Sequencing System (Illumina, Calif.) with single-end 50 bp reads. Following removal of primers and barcodes, sequences were aligned to the mm10 genome using reference annotations from UCSC (Rosenbloom et al. (2015) Nucleic acids research 43: […]-681) (n=36,186 entities). Aligned reads were quantified and used to compute reads per kilobase per million mapped reads (RPKM); raw counts were then normalized using the DESeq algorithm and each harvested sample was baselined to its own resected sample. A filter was applied to the data, requiring at least three reads in all samples of at least one of the four experimental conditions (n=14,489 entities). The data discussed in this publication have been deposited in NCBI's Gene Expression Omnibus and are accessible through NCBI Gene Expression Omnibus (GEO) Series accession number GSE72590. Edgar et al. (2002) Nucleic acids research 30: 207-210. In order to characterize the impact of 2'-FL supplementation while accounting for the effect of ileoecal resection, a t-test was applied between resected and harvested samples within control and experimental animals. Significance was set at a p-value of ≤0.05 and a fold change of 3, which generated 2,576 differentially regulated entities across two comparisons. Gene set unions and intersections of the control and experimental gene sets were identified through Venn diagrams. From the master list, the gene list specific to animals supplemented with 2'-FL were removed in order to identify genes differentially regulated only by ICR (n=546 entities); this gene set characterizes the adaptive response. Further, the 2'-FL response (n=2,030 entities) was identified by removing the adaptive response signature described above from the master list, leaving only genes regulated by 2'-FL supplementation after ICR which were not found in the non-supplemented adaptive response. Heatmaps were generated using hierarchical clustering with the Pearson's Centered distance metric and the average linkage rule; both entities and samples were clustered. All genomic analyses described above were performed in Strand NGS (Strand Life Sciences, CA). Gene list functional enrichment was initially discovered using ToppFun, a member of the ToppGene Suite. Chen et al. (2009) Nucleic acids research 37: […]-311. No statistical correction was selected. Gene lists were further analyzed using ClueGO, a plugin for Cytoscape designed to decipher functionally grouped gene ontology and pathway annotation networks. Bindea et al. (2009) Bioinformatics 25: 1091-1093. At the time of data analysis, the annotation files were updated from sources to Jan. 1, 2015. “GO Term Fusion” was enabled to manage ontologic term redundancy and network specificity was set to medium. Results were restricted to pathways with p≤0.05 using Benjamini-Hochberg correction and Kappa scoring was set to 0.4. Biocyc annotations were assigned a rectangle, gene ontology biologic processes were assigned an ellipse, and […] annotations were assigned a diamond shape. No meaning was assigned to size or color. […]

[1] = 2′-FL signature response, harvested vs resected small bowel, 8 weeks

Compound: C[C@@H]1O[C@@H](O[C@H]2[C@H](O[C@H]3[C@H](O)[C@@H](O)C(O)O[C@@H]3CO)O[C@H](CO)[C@H](O)[C@@H]2O)[C@@H](O)[C@H](O)[C@@H]1O (stereo partly drawn) [2′-FL, 2′-fucosyllactose]
- Fgf15 fold change (FC) [1]: −64.6
- Fmr1nb fold change (FC) [1]: 12.7
- Hemt1 fold change (FC) [1]: 15.4
- Irs2 fold change (FC) [1]: −43.6
- Map3k12 fold change (FC) [1]: 16.2
- Mcpt2 fold change (FC) [1]: 13.4
- P2ry4 fold change (FC) [1]: −22.2
- Rnf150 fold change (FC) [1]: −20.4
- Tmem202 fold change (FC) [1]: 18.0
- Ttc28 fold change (FC) [1]: −24.2
- Fold Change (Pre- to Post-op) (0610040B10Rik): 4.168
- Fold Change (Pre- to Post-op) (1700019L03Rik): 4.251
- Fold Change (Pre- to Post-op) (1700020N01Rik): 4.446
- Fold Change (Pre- to Post-op) (1810011O10Rik): 4.443
- Fold Change (Pre- to Post-op) (1810059H22Rik): 4.23
- Fold Change (Pre- to Post-op) (2010308F09Rik): 14.34
- Fold Change (Pre- to Post-op) (3300005D01Rik): 4.41
- Fold Change (Pre- to Post-op) (9430038I01Rik): 6.474
- Fold Change (Pre- to Post-op) (Atp5j2): 4.445
- Fold Change (Pre- to Post-op) (Atpif1): 4.145
- Fold Change (Pre- to Post-op) (Bambi-ps1): 4.353
- Fold Change (Pre- to Post-op) (Casq1): 4.38
- Fold Change (Pre- to Post-op) (Cd320): 4.215
- Fold Change (Pre- to Post-op) (Coa4): 4.375
- Fold Change (Pre- to Post-op) (Cox7a1): 6.411
- Fold Change (Pre- to Post-op) (Dgcr6): 4.237
- Fold Change (Pre- to Post-op) (Dnah2): 4.392
- Fold Change (Pre- to Post-op) (Dynlt1b): 4.376
- Fold Change (Pre- to Post-op) (Dynlt1c): 4.148
- Fold Change (Pre- to Post-op) (Elof1): 4.343
- Fold Change (Pre- to Post-op) (Fam216a): 4.147
- Fold Change (Pre- to Post-op) (Gm5485): 4.139
- Fold Change (Pre- to Post-op) (Gm6251): 4.383
- Fold Change (Pre- to Post-op) (Gm8274): 4.331
- Fold Change (Pre- to Post-op) (Gm10433): 4.377
- Fold Change (Pre- to Post-op) (Gm10451): 4.182
- Fold Change (Pre- to Post-op) (Hemt1): 15.36
- Fold Change (Pre- to Post-op) (Hint1): 4.482
- Fold Change (Pre- to Post-op) (Hscb): 4.227
- Fold Change (Pre- to Post-op) (Hspb2): 4.189
- Fold Change (Pre- to Post-op) (Ift20): 4.337
- Fold Change (Pre- to Post-op) (Med11): 4.235
- Fold Change (Pre- to Post-op) (Mpc2): 4.128
- Fold Change (Pre- to Post-op) (Ndufa7): 4.362
- Fold Change (Pre- to Post-op) (Ndufaf5): 4.338
- Fold Change (Pre- to Post-op) (Ndufb7): 4.217
- Fold Change (Pre- to Post-op) (Oaz1): 4.347
- Fold Change (Pre- to Post-op) (Ormdl1): 4.184
- Fold Change (Pre- to Post-op) (Pstk): 4.142
- Fold Change (Pre- to Post-op) (Rabl5): 4.448
- Fold Change (Pre- to Post-op) (Rbp1): 4.364
- Fold Change (Pre- to Post-op) (Rilpl2): 4.235
- Fold Change (Pre- to Post-op) (Rpl34): 4.37
- Fold Change (Pre- to Post-op) (Rps15a-ps4): 4.372
- Fold Change (Pre- to Post-op) (Rps24): 4.131
- Fold Change (Pre- to Post-op) (Rps25): 4.218
- Fold Change (Pre- to Post-op) (S100a6): 4.237
- Fold Change (Pre- to Post-op) (Sec22a): 4.221
- Fold Change (Pre- to Post-op) (Sh2d1b1): 4.118
- Fold Change (Pre- to Post-op) (Smim4): 4.229
- Fold Change (Pre- to Post-op) (Smim6): 4.424
- Fold Change (Pre- to Post-op) (Tm6sf1): 4.173
- Fold Change (Pre- to Post-op) (Tnfsf11): 4.335
- Fold Change (Pre- to Post-op) (Wfdc17): 4.382
- Fold Change (Pre- to Post-op) (Zfp433): 4.119
- Fold Change (Pre- to Post-op) (Zswim7): 4.475
- Fold Change (Pre- to Post-op) (gene AI414108): −9.671
- Fold Change (Pre- to Post-op) (gene Agap2): −9.801
- Fold Change (Pre- to Post-op) (gene Ankrd52): −10.58
- Fold Change (Pre- to Post-op) (gene Apba1): −18.88
- Fold Change (Pre- to Post-op) (gene Atp1a2): −18.47
- Fold Change (Pre- to Post-op) (gene Atp1b2): −18.71
- Fold Change (Pre- to Post-op) (gene Bcl9l): −10.08
- Fold Change (Pre- to Post-op) (gene Car3): −9.901
- Fold Change (Pre- to Post-op) (gene Chd7): −11.26
- Fold Change (Pre- to Post-op) (gene D830031N03Rik): −15.57
- Fold Change (Pre- to Post-op) (gene Ebf1): −10.39
- Fold Change (Pre- to Post-op) (gene Fgf15): −64.61
- Fold Change (Pre- to Post-op) (gene Flt1): −15.79
- Fold Change (Pre- to Post-op) (gene Fscn1): −10.73
- Fold Change (Pre- to Post-op) (gene Gltscr1): −13.3
- Fold Change (Pre- to Post-op) (gene Irs2): −43.6
- Fold Change (Pre- to Post-op) (gene Ldoc1l): −10.25
- Fold Change (Pre- to Post-op) (gene Leprel1): −9.903
- Fold Change (Pre- to Post-op) (gene Lyst): −9.938
- Fold Change (Pre- to Post-op) (gene Nav2): −12.39
- Fold Change (Pre- to Post-op) (gene Nfix): −16.561
- Fold Change (Pre- to Post-op) (gene Nos1ap): −10.38
- Fold Change (Pre- to Post-op) (gene P2ry4): −22.22
- Fold Change (Pre- to Post-op) (gene Parvb): −9.684
- Fold Change (Pre- to Post-op) (gene Peg3): −15.37
- Fold Change (Pre- to Post-op) (gene Plin1): −16.34
- Fold Change (Pre- to Post-op) (gene Polr2a): −18.45
- Fold Change (Pre- to Post-op) (gene Ptpru): −10.01
- Fold Change (Pre- to Post-op) (gene Rgs9): −9.821
- Fold Change (Pre- to Post-op) (gene Rnf150): −20.41
- Fold Change (Pre- to Post-op) (gene Scd1): −20.28
- Fold Change (Pre- to Post-op) (gene Sema3g): −18.02
- Fold Change (Pre- to Post-op) (gene Shank3): −15.22
- Fold Change (Pre- to Post-op) (gene Soga1): −14.4
- Fold Change (Pre- to Post-op) (gene Spen): −14.44
- Fold Change (Pre- to Post-op) (gene Tenm3): −14.72
- Fold Change (Pre- to Post-op) (gene Tiam1): −15.28
- Fold Change (Pre- to Post-op) (gene Tmem151a): −10.06
- Fold Change (Pre- to Post-op) (gene Tomm6os): −12.41
- Fold Change (Pre- to Post-op) (gene Trerf1): −9.926
- Fold Change (Pre- to Post-op) (gene Trim56): −9.711
- Fold Change (Pre- to Post-op) (gene Ttc28): −24.22
- Fold Change (Pre- to Post-op) (gene Zbed6): −9.794
- Fold Change (Pre- to Post-op) (gene Zfp609): −11.22
- number of downregulated entities of the 2′-FL signature response (small bowel 56 days after ICR): 1,247
